Data published in PubChem BioAssay (NCI).
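1) Cells in 96-well plates. 2) Compound, 48 h, 5 concentrations. 3) Linear interpolation between surrounding doses. 4) Unreached endpoint = highest concentration. TGI is the concentration that stops growth completely.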

How the values were obtained:
Test in all cases: NCI anticancer screen, dose series, 48 h
SNB-19 CNS = test system: SNB-19 CNS
SK-OV-3 ovarian = test system: SK-OV-3 ovarian
OVCAR-4 ovarian = test system: OVCAR-4 ovarian
MDA-MB-435 = test system: MDA-MB-435
ACHN renal = test system: ACHN renal
MCF7 breast = test system: MCF7 breast
SK-MEL-5 melanoma = test system: SK-MEL-5 melanoma
RXF 393 renal = test system: RXF 393 renal
CCRF-CEM leukemia = test system: CCRF-CEM leukemia
OVCAR-5 ovarian = test system: OVCAR-5 ovarian
KM12 colon = test system: KM12 colon
NCI-H23 lung = test system: NCI-H23 lung
786-0 renal = test system: 786-0 renal
TK-10 renal = test system: TK-10 renal
SF-268 CNS = test system: SF-268 CNS
MDA-MB-231 breast = test system: MDA-MB-231 breast
MOLT-4 leukemia = test system: MOLT-4 leukemia
NCI-H226 lung = test system: NCI-H226 lung
SR leukemia = test system: SR leukemia
SK-MEL-28 melanoma = test system: SK-MEL-28 melanoma
K-562 leukemia = test system: K-562 leukemia
M14 melanoma = test system: M14 melanoma
SW-620 colon = test system: SW-620 colon
EKVX NSCLC = test system: EKVX NSCLC
NCI/ADR-RES ovarian = test system: NCI/ADR-RES ovarian
UACC-257 melanoma = test system: UACC-257 melanoma
OVCAR-3 ovarian = test system: OVCAR-3 ovarian
DU-145 prostate = test system: DU-145 prostate
SN12C renal = test system: SN12C renal
HOP-62 NSCLC = test system: HOP-62 NSCLC
HCT-15 colon = test system: HCT-15 colon
IGROV1 ovarian = test system: IGROV1 ovarian
NCI-H460 lung = test system: NCI-H460 lung
A498 renal = test system: A498 renal
NCI-H522 lung = test system: NCI-H522 lung
SNB-75 CNS = test system: SNB-75 CNS
UACC-62 melanoma = test system: UACC-62 melanoma
PC-3 prostate = test system: PC-3 prostate
T-47D breast = test system: T-47D breast
COLO 205 colon = test system: COLO 205 colon
A549 NSCLC = test system: A549 NSCLC
HL-60(TB) leukemia = test system: HL-60(TB) leukemia
HT29 colon = test system: HT29 colon
BT-549 breast = test system: BT-549 breast
OVCAR-8 ovarian = test system: OVCAR-8 ovarian
HCC-2998 colon = test system: HCC-2998 colon
SF-295 CNS = test system: SF-295 CNS
LOX IMVI melanoma = test system: LOX IMVI melanoma
UO-31 renal = test system: UO-31 renal
MDA-N = test system: MDA-N
U251 CNS = test system: U251 CNS
HCT-116 colon = test system: HCT-116 colon
HOP-92 NSCLC = test system: HOP-92 NSCLC
CAKI-1 renal = test system: CAKI-1 renal
MALME-3M melanoma = test system: MALME-3M melanoma
SK-MEL-2 melanoma = test system: SK-MEL-2 melanoma
RPMI-8226 leukemia = test system: RPMI-8226 leukemia
SF-539 CNS = test system: SF-539 CNS

Q: Which results are given for `CC1(C)Cc2c(cnn2-c2ccc(C(F)(F)F)cc2)-c2nc(-c3ccc(O)cc3)[nH]c21`?
A: TGI (SNB-19 CNS): 86.1 µM; TGI (SK-OV-3 ovarian): 45.3 µM; TGI (OVCAR-4 ovarian): 29.2 µM; TGI (MDA-MB-435): 37.8 µM; TGI (ACHN renal): 28.5 µM; TGI (MCF7 breast): 30.7 µM; TGI (SK-MEL-5 melanoma): 34 µM; TGI (RXF 393 renal): 15.6 µM; TGI (CCRF-CEM leukemia): 11.2 µM; TGI (OVCAR-5 ovarian): 39.1 µM; TGI (KM12 colon): 33.9 µM; TGI (NCI-H23 lung): 41.2 µM; TGI (786-0 renal): 12.6 µM; TGI (TK-10 renal): 35.3 µM; TGI (SF-268 CNS): 28.5 µM; TGI (MDA-MB-231 breast): 40.7 µM; TGI (MOLT-4 leukemia): 22.7 µM; TGI (NCI-H226 lung): 52.3 µM; TGI (SR leukemia): 28.7 µM; TGI (SK-MEL-28 melanoma): 30.9 µM; TGI (K-562 leukemia): 70.2 µM; TGI (M14 melanoma): 33.9 µM; TGI (SW-620 colon): 51.5 µM; TGI (EKVX NSCLC): 42.9 µM; TGI (NCI/ADR-RES ovarian): 45 µM; TGI (UACC-257 melanoma): 34.4 µM; TGI (OVCAR-3 ovarian): 29.4 µM; TGI (DU-145 prostate): 31.6 µM; TGI (SN12C renal): 31.8 µM; TGI (HOP-62 NSCLC): 39.6 µM; TGI (HCT-15 colon): 25.8 µM; TGI (IGROV1 ovarian): 40.1 µM; TGI (NCI-H460 lung): 33.2 µM; TGI (A498 renal): 43.7 µM; TGI (NCI-H522 lung): 26.2 µM; TGI (SNB-75 CNS): 21 µM; TGI (UACC-62 melanoma): 31 µM; TGI (PC-3 prostate): 33.3 µM; TGI (T-47D breast): 38.5 µM; TGI (COLO 205 colon): 35.6 µM; TGI (A549 NSCLC): 38.6 µM; TGI (HL-60(TB) leukemia): 23 µM; TGI (HT29 colon): 17.4 µM; TGI (BT-549 breast): 28.5 µM; TGI (OVCAR-8 ovarian): 58.2 µM; TGI (HCC-2998 colon): 30 µM; TGI (SF-295 CNS): 38 µM; TGI (LOX IMVI melanoma): 43 µM; TGI (UO-31 renal): 36.2 µM; TGI (MDA-N): 38.6 µM; TGI (U251 CNS): 25.2 µM; TGI (HCT-116 colon): 28.4 µM; TGI (HOP-92 NSCLC): 45.1 µM; TGI (CAKI-1 renal): 34.6 µM; TGI (MALME-3M melanoma): 29.7 µM

Q: How did the TGI (SNB-19 CNS) turn out when `CC(=O)OCC1OC(N2C(=O)NC(=O)C3C=C4CCCCC4=CC32)C(OC(C)=O)C1OC(C)=O` (stereo not given) was run?
A: > 100 µM

Q: And the TGI (SK-OV-3 ovarian)?
A: > 100 µM

Q: What about the TGI (OVCAR-4 ovarian) of the same compound?
A: > 100 µM

Q: What about the TGI (MDA-MB-435) of the same compound?
A: > 100 µM

Q: And the TGI (ACHN renal)?
A: > 100 µM

Q: What about the TGI (SK-MEL-2 melanoma) of the same compound?
A: > 100 µM

Q: And the TGI (MCF7 breast)?
A: > 100 µM

Q: And the TGI (SK-MEL-5 melanoma)?
A: > 100 µM

Q: And the TGI (RXF 393 renal)?
A: > 100 µM

Q: And the TGI (CCRF-CEM leukemia)?
A: > 100 µM

Q: What about the TGI (OVCAR-5 ovarian) of the same compound?
A: > 100 µM

Q: What about the TGI (NCI-H23 lung) of the same compound?
A: > 100 µM

Q: And the TGI (TK-10 renal)?
A: > 100 µM

Q: And the TGI (RPMI-8226 leukemia)?
A: > 100 µM

Q: What about the TGI (MDA-MB-231 breast) of the same compound?
A: > 100 µM

Q: And the TGI (MOLT-4 leukemia)?
A: > 100 µM

Q: And the TGI (SR leukemia)?
A: > 100 µM

Q: What about the TGI (SK-MEL-28 melanoma) of the same compound?
A: > 100 µM

Q: What about the TGI (K-562 leukemia) of the same compound?
A: > 100 µM

Q: What about the TGI (M14 melanoma) of the same compound?
A: > 100 µM

Q: What about the TGI (SW-620 colon) of the same compound?
A: > 100 µM

Q: What about the TGI (EKVX NSCLC) of the same compound?
A: > 100 µM

Q: And the TGI (UACC-257 melanoma)?
A: > 100 µM

Q: And the TGI (OVCAR-3 ovarian)?
A: > 100 µM

Q: And the TGI (DU-145 prostate)?
A: > 100 µM

Q: What about the TGI (SN12C renal) of the same compound?
A: > 100 µM

Q: What about the TGI (HCT-15 colon) of the same compound?
A: > 100 µM

Q: What about the TGI (IGROV1 ovarian) of the same compound?
A: > 100 µM

Q: What about the TGI (NCI-H460 lung) of the same compound?
A: > 100 µM

Q: And the TGI (A498 renal)?
A: > 100 µM

Q: What about the TGI (NCI-H522 lung) of the same compound?
A: > 100 µM

Q: What about the TGI (UACC-62 melanoma) of the same compound?
A: > 100 µM

Q: And the TGI (PC-3 prostate)?
A: > 100 µM

Q: What about the TGI (T-47D breast) of the same compound?
A: > 100 µM

Q: And the TGI (COLO 205 colon)?
A: > 100 µM

Q: What about the TGI (A549 NSCLC) of the same compound?
A: > 100 µM

Q: And the TGI (HL-60(TB) leukemia)?
A: > 100 µM

Q: And the TGI (BT-549 breast)?
A: > 100 µM

Q: And the TGI (HCC-2998 colon)?
A: > 100 µM

Q: What about the TGI (SF-295 CNS) of the same compound?
A: > 100 µM

Q: And the TGI (SF-539 CNS)?
A: > 100 µM

Q: What about the TGI (LOX IMVI melanoma) of the same compound?
A: > 100 µM

Q: And the TGI (UO-31 renal)?
A: > 100 µM

Q: What about the TGI (MDA-N) of the same compound?
A: > 100 µM

Q: What about the TGI (U251 CNS) of the same compound?
A: > 100 µM

Q: What about the TGI (HCT-116 colon) of the same compound?
A: > 100 µM

Q: What about the TGI (HOP-92 NSCLC) of the same compound?
A: > 100 µM

Q: And the TGI (CAKI-1 renal)?
A: > 100 µM

Q: And the TGI (MALME-3M melanoma)?
A: > 100 µM

Q: Which results are given for `CCOC(=O)C1=c2[nH]c3cccc4cccc(c43)n2C(=O)CC1`?
A: TGI (SNB-19 CNS): > 100 µM; TGI (SK-OV-3 ovarian): > 100 µM; TGI (OVCAR-4 ovarian): > 100 µM; TGI (MDA-MB-435): > 100 µM; TGI (ACHN renal): > 100 µM; TGI (SK-MEL-2 melanoma): > 100 µM; TGI (MCF7 breast): > 100 µM; TGI (SK-MEL-5 melanoma): > 100 µM; TGI (RXF 393 renal): > 100 µM; TGI (CCRF-CEM leukemia): > 100 µM; TGI (OVCAR-5 ovarian): > 100 µM; TGI (KM12 colon): 89.3 µM; TGI (NCI-H23 lung): > 100 µM; TGI (786-0 renal): > 100 µM; TGI (TK-10 renal): > 100 µM; TGI (RPMI-8226 leukemia): > 100 µM; TGI (MOLT-4 leukemia): > 100 µM; TGI (SR leukemia): > 100 µM; TGI (SK-MEL-28 melanoma): > 100 µM; TGI (K-562 leukemia): > 100 µM; TGI (M14 melanoma): > 100 µM; TGI (SW-620 colon): 71.3 µM; TGI (EKVX NSCLC): > 100 µM; TGI (NCI/ADR-RES ovarian): > 100 µM; TGI (UACC-257 melanoma): > 100 µM; TGI (OVCAR-3 ovarian): > 100 µM; TGI (DU-145 prostate): > 100 µM; TGI (SN12C renal): > 100 µM; TGI (HOP-62 NSCLC): > 100 µM; TGI (HCT-15 colon): > 100 µM; TGI (IGROV1 ovarian): > 100 µM; TGI (NCI-H460 lung): > 100 µM; TGI (A498 renal): > 100 µM; TGI (SNB-75 CNS): > 100 µM; TGI (UACC-62 melanoma): > 100 µM; TGI (PC-3 prostate): > 100 µM; TGI (T-47D breast): 69.8 µM; TGI (COLO 205 colon): > 100 µM; TGI (A549 NSCLC): > 100 µM; TGI (HL-60(TB) leukemia): 64 µM; TGI (BT-549 breast): > 100 µM; TGI (OVCAR-8 ovarian): > 100 µM; TGI (HCC-2998 colon): > 100 µM; TGI (SF-295 CNS): > 100 µM; TGI (LOX IMVI melanoma): 62.2 µM; TGI (UO-31 renal): > 100 µM; TGI (MDA-N): > 100 µM; TGI (U251 CNS): > 100 µM; TGI (HCT-116 colon): > 100 µM; TGI (HOP-92 NSCLC): > 100 µM; TGI (CAKI-1 renal): > 100 µM
